US9562035B2, “Benzamide derivative useful as FASN inhibitors for the treatment of cancer” (Janssen Pharmaceutica NV, priority 2013, dated 2017)

Columns and labels:
[1] = target: T1, hFASN enzyme (full length) (Homo sapiens, UniProt P49327); assay: Fatty Acid Synthase (FASN) Inhibition Scintillation Proximity Assay; assay type: biochemical; conditions: for IC50: mean where tested more than once, ~ = standard error of pIC50 larger than 0.5; for inhibition at 10 µM: read-out: FASN % Effect @1E−05M
T1 construct: 10 μL hFASN enzyme (full length, 300 ng, purified in house); made in house
T1 sequence (P49327 whole entry): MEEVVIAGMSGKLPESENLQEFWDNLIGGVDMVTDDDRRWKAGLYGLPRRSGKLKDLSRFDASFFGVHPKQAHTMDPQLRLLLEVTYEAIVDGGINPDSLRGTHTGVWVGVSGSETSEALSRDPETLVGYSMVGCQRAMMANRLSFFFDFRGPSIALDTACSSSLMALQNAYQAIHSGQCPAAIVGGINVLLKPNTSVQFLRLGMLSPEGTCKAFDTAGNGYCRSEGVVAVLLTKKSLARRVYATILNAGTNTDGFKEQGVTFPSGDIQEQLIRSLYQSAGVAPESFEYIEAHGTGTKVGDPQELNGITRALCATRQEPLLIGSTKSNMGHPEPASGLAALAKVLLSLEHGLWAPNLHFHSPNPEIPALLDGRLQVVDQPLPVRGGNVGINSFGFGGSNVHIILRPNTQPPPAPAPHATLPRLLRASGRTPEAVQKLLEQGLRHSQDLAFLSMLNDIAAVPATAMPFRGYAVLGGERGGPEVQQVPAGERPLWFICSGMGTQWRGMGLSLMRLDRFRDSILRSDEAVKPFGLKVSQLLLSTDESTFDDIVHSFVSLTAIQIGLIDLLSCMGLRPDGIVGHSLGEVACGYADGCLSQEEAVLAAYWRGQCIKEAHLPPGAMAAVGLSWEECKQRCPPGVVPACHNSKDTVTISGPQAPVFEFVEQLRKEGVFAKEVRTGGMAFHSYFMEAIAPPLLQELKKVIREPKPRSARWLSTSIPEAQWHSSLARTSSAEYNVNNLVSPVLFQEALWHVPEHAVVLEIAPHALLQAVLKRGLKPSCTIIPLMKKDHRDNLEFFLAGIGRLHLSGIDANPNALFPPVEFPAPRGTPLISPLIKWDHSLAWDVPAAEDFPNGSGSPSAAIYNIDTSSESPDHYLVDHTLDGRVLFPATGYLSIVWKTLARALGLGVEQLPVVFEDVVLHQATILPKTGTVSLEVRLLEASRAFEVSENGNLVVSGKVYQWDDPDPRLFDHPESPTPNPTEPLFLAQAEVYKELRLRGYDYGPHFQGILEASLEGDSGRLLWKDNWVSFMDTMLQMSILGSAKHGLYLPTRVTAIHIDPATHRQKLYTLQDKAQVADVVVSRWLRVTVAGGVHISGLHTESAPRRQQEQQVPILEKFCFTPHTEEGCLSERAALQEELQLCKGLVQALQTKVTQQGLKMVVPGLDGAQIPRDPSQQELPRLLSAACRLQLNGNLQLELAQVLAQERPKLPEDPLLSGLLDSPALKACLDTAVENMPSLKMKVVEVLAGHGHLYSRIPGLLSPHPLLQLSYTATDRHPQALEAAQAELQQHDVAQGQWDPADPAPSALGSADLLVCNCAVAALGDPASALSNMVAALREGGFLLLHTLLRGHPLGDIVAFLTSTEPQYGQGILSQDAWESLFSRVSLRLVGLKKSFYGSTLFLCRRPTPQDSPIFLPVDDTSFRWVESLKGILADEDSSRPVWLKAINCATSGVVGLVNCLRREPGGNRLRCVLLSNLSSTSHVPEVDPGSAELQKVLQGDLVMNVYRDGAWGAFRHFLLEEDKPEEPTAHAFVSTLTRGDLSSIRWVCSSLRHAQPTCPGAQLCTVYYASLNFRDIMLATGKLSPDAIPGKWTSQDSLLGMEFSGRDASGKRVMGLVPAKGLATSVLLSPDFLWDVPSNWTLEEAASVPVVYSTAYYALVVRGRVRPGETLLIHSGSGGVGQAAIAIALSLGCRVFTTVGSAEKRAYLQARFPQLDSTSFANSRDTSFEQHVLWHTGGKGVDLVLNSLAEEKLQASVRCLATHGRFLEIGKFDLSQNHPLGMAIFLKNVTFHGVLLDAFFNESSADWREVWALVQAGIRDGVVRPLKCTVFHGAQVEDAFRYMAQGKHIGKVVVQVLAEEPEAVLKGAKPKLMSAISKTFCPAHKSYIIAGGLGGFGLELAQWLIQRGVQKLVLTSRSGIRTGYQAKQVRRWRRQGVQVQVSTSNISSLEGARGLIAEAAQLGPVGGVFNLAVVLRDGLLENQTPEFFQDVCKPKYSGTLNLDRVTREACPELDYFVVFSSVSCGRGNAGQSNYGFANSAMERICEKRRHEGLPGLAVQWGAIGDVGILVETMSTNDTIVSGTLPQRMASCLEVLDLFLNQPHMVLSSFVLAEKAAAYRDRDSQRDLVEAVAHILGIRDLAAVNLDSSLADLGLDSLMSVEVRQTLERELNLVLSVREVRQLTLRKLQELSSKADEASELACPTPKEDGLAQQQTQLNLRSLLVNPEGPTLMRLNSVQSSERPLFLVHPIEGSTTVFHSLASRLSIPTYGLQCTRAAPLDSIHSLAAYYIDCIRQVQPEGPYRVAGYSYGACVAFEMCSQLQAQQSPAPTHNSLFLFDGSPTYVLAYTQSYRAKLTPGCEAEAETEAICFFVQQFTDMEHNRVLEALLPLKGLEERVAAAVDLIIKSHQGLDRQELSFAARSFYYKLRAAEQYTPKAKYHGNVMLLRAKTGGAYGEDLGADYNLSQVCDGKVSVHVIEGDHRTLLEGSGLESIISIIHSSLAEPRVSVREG
Experimental: In this assay, inhibition of FASN activity is measured using ^3H-acetyl-CoA and malonyl-CoA as substrates. ^3H-Acetyl CoA is converted to ^3H-palmitate through a series of reactions by the FASN protein, which contains 7 functional domains and carries out 7 enzymatic reactions to ultimately produce ^3H-palmitate. The assay principle is based upon the fact that ^3H-acetyl-CoA is hydrophilic and the end product, ^3H-palmitate is hydrophobic.
10 μL assay buffer (100 mM KH2PO4 pH 7.5, 1 mM DTT) (20 μL in blanks) was added to a 384-well white Opti Plate plate (Perkin Elmer). 0.9 μL test compound (at concentrations of 30 μM, 10 μM, 3 μM, 1 μM, 0.30 μM, 0.10 μM, 0.03 μM and 0.01 μM)/DMSO and 10 μL hFASN enzyme (full length, 300 ng, purified in house) or 10 μL assay buffer was added to the wells. Then 10 μL 450 μM NADPH (Sigma N7505), 18.75 μM [^3H]-acetyl-CoA (Perkin Elmer NET-290L), 150 μM malonyl-CoA (Sigma M4263) were added, mixed and incubated at room temperature for 60 minutes. The reaction was stopped by adding 20 μL Streptavidin coupled imaging beads (25 mg/ml). After incubation for 30 minutes at room temperature in the dark, the 384 well plate was centrifuged at 1500 rpm for 3 minutes and was measured after at least 24 hrs by the LEADseeker™, measuring emission using a 610±20 nm pass filter. (Bays, N. W., et al., “A simplified scintillation proximity assay for fatty acid synthase activity: development and comparison with other FAS activity assays”, J. Biomol. Screen, 2009, pp 636-642, Vol. 14(6).)
(§1) Raw data generated by the instrument were normalized to % Controlmin values, which were calculated as: % Controlmin=100*(x−mLC)/(mHC−mLC)
(§2) where mLC and mHC were the means of the low control wells and high control wells on the plate, after manual exclusion of outliers. A plot of Controlmin versus test compound concentration was fitted to a 4-parameter logistic curve using a non-linear least squares regression method. From the plot, an IC50 (concentration at which 50% inhibition is achieved) was calculated. pIC50 values were calculated as −log(IC50), when IC50 is expressed in molar units.

[2] = tested on: A2780 ovarian cells; assay: A2780 Ovarian Cell Proliferation Assay in Lipid Reduced Medium, with Palmitate (control); assay type: cell-based; conditions: Homo sapiens, A2780; lipid reduced medium, 25 μM palmitate, 96 h, MTT; read-out: Proliferation A2780 with Palmitate pIC50 (converted)
Experimental: (§3) The biological assays described below correspond to comparative assays for ovarian cell proliferation. […] Compounds active in the absence of palmitate would not be expected to be active in the control.
(§4) 2500 cells were seeded in a 96-well clear well plate in 200 μL RPMI1640 with 10% Fetal Calf Serum (Hyclone), and incubated at 37° C., 5% CO2. Blanks were wells without cells. The next day the culture medium was aspirated and replaced by 160 μL culture medium with 10% Lipid-Reduced Serum (LRS, Hyclone). 20 μL test compound (at concentrations of 30 μM, 10 μM, 3 μM, 1 μM, 0.30 μM, 0.10 μM, 0.03 μM and 0.01 μM)/DMSO dilution followed by 20 μL palmitate-BSA solution were added to a final concentrations of 0.2% DMSO, 25 μM palmitate (Sigma, P0500, 10 mM stock solution in ethanol) 0.2% fatty-acid-free BSA, 0.25% ethanol. After 96 h incubation, an MTT assay was performed. The absorbance was measured at 544 nm on a SPECTRAMAX.
A best fit curve was fitted by a minimum sum of squares method, plotting Controlmin versus test compound concentration. From the plot, an IC50 (concentration at which 50% inhibition is achieved) was calculated. pIC50 values, presented in the Table below, were calculated as −log(IC50).
(§5) Representative compounds of the present invention were tested according to the procedure as described in Biological Example 3 above, with results as listed in Table BIO-3, below.

[3] = tested on: A2780 ovarian cells; assay: A2780 Ovarian Cell Proliferation Assay in Lipid Reduced Medium, without Palmitate; assay type: cell-based; conditions: Homo sapiens, A2780; lipid reduced medium, without palmitate, 96 h, MTT; read-out: Proliferation A2780 w/o Palmitate pIC50 (converted)
Experimental: as §3
as §4, with “ethanol-BSA” for “palmitate-BSA”, “DMSO,” for “DMSO, 25 μM palmitate (Sigma, P0500, 10 mM stock solution in ethanol)”, “incubation” for “incubation,”
as §1, §2, §5

[4] = target: T2, FASN Keto-reductase Domain (Homo sapiens, UniProt P49327); assay: Fatty Acid Synthase Keto-Reductase Domain (FASN KR) Inhibition; assay type: biochemical; conditions: mean where tested more than once; read-out: FASN K-R Domain pIC50 (converted)
T2 construct: 10 μL hFASN enzyme (full length, 300 ng, purified in house) and 360 μM NADPH; made in house
T2 sequence (P49327 whole entry, the tested form may be a part): as the sequence (P49327 whole entry) above
Experimental: 10 μL assay buffer (100 mM KH2PO4 pH 7.5) was added to a 384-well clear plate (costar 3702). 0.3 μL compound (at concentrations of 30 μM, 10 μM, 3 μM, 1 μM, 0.30 μM, 0.10 μM, 0.03 μM and 0.01 μM)/DMSO, 10 μL hFASN enzyme (full length, 300 ng, purified in house) and 360 μM NADPH (except in blank) were then added. Then, 10 μL 180 mM ethyl acetoacetate (Aldrich 688983) was added, mixed and immediately thereafter, the absorbance at 340 nm (T1) by Multiscan (Labsystems) was measured. After 20 minutes incubation at room temperature the plate was measured again (T2).
The decrease in absorbance was calculated as (Absorbance before incubation T1)−(Absorbance following incubation T2).
as §1, §2

Row | IC50 [1] | inhibition at 10 µM [1] | IC50 [2] | IC50 [3] | IC50 [4] | SMILES
1 | 251 nM | 101% | 8510 nM | 603 nM | 562 nM | Cc1ccc(C(=O)N2CC[C@H](c3ccc(-n4ccnc4)cc3)[C@H](C)C2)cc1NC(=O)c1ccc(Cl)nc1 (racemic) [Compound 53, (±)-N-(5-((3S,4S)-4-(4-(1H-imidazol-1-yl)phenyl)-3-methylpiperidine-1-carbonyl)-2-methylphenyl)-6-chloronicotinamide]
2 | 17.4 nM | 100% | > 10000 nM | 95.5 nM | 29.5 nM | COc1ccc(C(=O)Nc2cc(C(=O)N3CCC(c4ccc(-c5cnn(C)c5)cc4)CC3)ccc2C)cc1 [Compound 93, 4-methoxy-N-(2-methyl-5-(4-(4-(1-methyl-1H-pyrazol-4-yl)phenyl)piperidine-1-carbonyl)phenyl)benzamide]
3 | 21.9 nM | 110% | 6610 nM | 36.3 nM | 72.4 nM | Cc1ccc(C(=O)N2CC(c3ccc(-c4cnn(C)c4)cc3)C2)cc1NC(=O)c1ccc(N2CCN(C)CC2)nc1 [Compound 141, N-(2-methyl-5-(3-(4-(1-methyl-1H-pyrazol-4-yl)phenyl)azetidine-1-carbonyl)phenyl)-6-(4-methylpiperazin-1-yl)nicotinamide]
4 | 22.4 nM | 113% | > 10000 nM | 8.71 nM | 60.3 nM | Cc1ccc(C(=O)N2CCC(c3ccc(-c4cnn(C)c4)cc3)CC2)cc1NC(=O)C1CN(C)C1 [Compound 222, 1-methyl-N-(2-methyl-5-(4-(4-(1-methyl-1H-pyrazol-4-yl)phenyl)piperidine-1-carbonyl)phenyl)azetidine-3-carboxamide]
5 | 16.2 nM | 109% | > 10000 nM | 74.1 nM | 45.7 nM | COc1ccc(C(=O)Nc2cc(C(=O)N3CC(c4ccc(-c5cnn(C)c5)cc4)C3)ccc2C)cc1 [Compound #83, 4-methoxy-N-(2-methyl-5-(3-(4-(1-methyl-1H-pyrazol-4-yl)phenyl)azetidine-1-carbonyl)phenyl)benzamide]
6 | 170 nM | 92% | 5750 nM | 372 nM | 282 nM | Cc1ccc(C(=O)N2CCC(c3ccc(-c4ccccc4F)cc3)CC2)cc1NC(=O)c1ccc(NC(C)C)nc1 [Compound 224, N-(5-(4-(2′-fluoro-[1,1′-biphenyl]-4-yl)piperidine-1-carbonyl)-2-methylphenyl)-6-(isopropylamino)nicotinamide]
7 | 26.9 nM | 108% | 4070 nM | 1350 nM | 105 nM | Cc1ccc(C(=O)N2CC(c3ccc(-c4cnn(C)c4)cc3)C2)cc1NC(=O)c1cnc(Cl)nc1 [Compound 154, 2-chloro-N-(2-methyl-5-(3-(4-(1-methyl-1H-pyrazol-4-yl)phenyl)azetidine-1-carbonyl)phenyl)pyrimidine-5-carboxamide]
8 | 21.9 nM | 103% | 10500 nM | 69.2 nM | 33.9 nM | Cc1ccc(C(=O)N2CCC(c3ccc(-c4cnn(C)c4)cc3)CC2)cc1NC(=O)c1ccc(C(F)(F)F)cc1 [Compound 145, N-(2-methyl-5-(4-(4-(1-methyl-1H-pyrazol-4-yl)phenyl)piperidine-1-carbonyl)phenyl)-4-(trifluoromethyl)benzamide]
9 | 15.5 nM | 103% | 11000 nM | ~91.2 nM | 69.2 nM | Cc1ccc(C(=O)N2CC(c3ccc(-c4ccnn4C)cc3)C2)cc1NC(=O)c1ccc(N(C)C2CCN(C)CC2)nc1 [Compound 61, 6-(methyl(1-methylpiperidin-4-yl)amino)-N-(2-methyl-5-(3-(4-(1-methyl-1H-pyrazol-5-yl)phenyl)azetidine-1-carbonyl)phenyl)nicotinamide]
10 | 490 nM | 91% | > 10000 nM | 794 nM | 741 nM | Cc1ccc(C(=O)N2CCC(c3ccc(-c4cnn(C)c4)cc3)CC2)cc1NC(=O)[C@H]1CCCN1 [Compound 172, (R)—N-(2-methyl-5-(4-(4-(1-methyl-1H-pyrazol-4-yl)phenyl)piperidine-1-carbonyl)phenyl)pyrrolidine-2-carboxamide]
11 | 36.3 nM | 103% | ~407 nM | 93.3 nM | 60.3 nM | CC(C)Nc1ccc(C(=O)Nc2cc(C(=O)N3CC(c4ccc(-c5ccnn5C)cc4)C3)ccc2Cl)cn1 [Compound 108, N-(2-chloro-5-(3-(4-(1-methyl-1H-pyrazol-5-yl)phenyl)azetidine-1-carbonyl)phenyl)-6-(isopropylamino)nicotinamide]
12 | 32.4 nM | 103% | > 15100 nM | ~57.5 nM | 44.7 nM | Cc1ccc(C(=O)N2CC(c3ccc(-c4cccnc4)cc3)C2)cc1NC(=O)c1ccc(NC(C)C)nc1 [Compound 10, 6-(isopropylamino)-N-(2-methyl-5-(3-(4-(pyridin-3-yl)phenyl)azetidine-1-carbonyl)phenyl)nicotinamide]
13 | 23.4 nM | 102% | > 10000 nM | 10 nM | 37.2 nM | Cc1ccc(C(=O)N2CC(c3ccc(-c4cnn(C)c4)cc3)C2)cc1NC(=O)c1cnc(NC(C)C)nc1 [Compound 158, 2-(isopropylamino)-N-(2-methyl-5-(3-(4-(1-methyl-1H-pyrazol-4-yl)phenyl)azetidine-1-carbonyl)phenyl)pyrimidine-5-carboxamide]
